Tests used:
[1] = test system: ventilatory pattern generator of the locust, Locusta migratoria; assay: Hyperthermic failure and recovery of locust ventilatory motor pattern; format: in vivo; conditions: for thermotolerance of neural function (failure temperature, FIG. 7A): 1 μM KT5823, 1 μM Cantharidin, 40 μM 8-Bromo cGMP
Protocol: To determine if the thermoprotective consequences of PKG manipulations also apply to central circuitry and motor pattern generation, the thermotolerance of the ventilatory pattern generator was measured (Robertson, R. M. 2004) of the locust, Locusta migratoria. […] Ventilatory arrhythmias (Arr) in untreated animals prior to hyperthermic failure are rarely seen in preparations treated with the PKG inhibitor (FIG. 4.). At failure, temperature was returned to room temperature and time to recovery recorded. Pretreated controls recover after 180.2±42.4 sec whereas KT5823-pretreated animals recover after 62.3±13.4 sec. […] Once ventilatory pattern failure occurs during a temperature ramp, heating was terminated and the motor pattern was monitored until recovery.
Male locusts aged 4-6 weeks were dissected and pinned on a cork board; overlying tissue was removed exposing the metathoracic ganglion. Standard locust saline was superfused and heated at a rate of 5° C./2 min. until motor pattern failure, after which saline was allowed to return to room temperature. Ventilatory motor patterns were monitored using an EMG electrode on muscle 161 in the second abdominal segment. Pressure injection (32±13.5 nL, 10 psi, 150 ms) into the ventilatory neuropil was with a glass microelectrode filled with either 1 μM KT5823 in standard locust saline or locust saline alone (sham treatment) 10 min. (pretreated) before, or during (acutely treated; ˜3 min. before failure in controls) the temperature ramp.
FIGS. 7 to 8 illustate hyperthermic failure of locust ventilatory motor pattern generation. FIG. 8 illustrates sample traces of the ventilatory rhythm recorded from an abdominal expiratory muscle in a control locust. The ventilatory arrhythmias prior to failure should be noted. At failure, temperature was allowed to return to room temperature and time to recovery was recorded. The ventilatory motor pattern after recovery is at a lower frequency than just prior to failure because the temperature is lower. […] Significant differences were found across all groups (ANOVA F(9,105)=13.160, p<0.001). […] Here too significant differences were found across all groups (ANOVA […], p<0.001) N>5 for all treatments. […] Error bars represent SEM.

[2] = test system: ventilatory pattern generator of the locust, Locusta migratoria; assay: as above; format: in vivo
febrile seizures = conditions: intermittent treatment of febrile seizures; cited from earlier work

Nc1nc2c(nc(Br)n2[C@@H]2O[C@@H]3COP(=O)(O)O[C@H]3[C@H]2O)c(=O)[nH]1 [8-Bromo cGMP, 8-bromo-guanosine 3′,5′-cyclic monophosphate]
thermotolerance of neural function (failure temperature, FIG. 7A) [1]: did not increase the thermotolerance of the circuit
effect on protective effects of heat shock preconditioning ([1]; 40 μM, HS animals (3 hr at 45° C.)): abolished the protective effects of heat shock preconditioning

CC12C(=O)OC(=O)C1(C)C1CCC2O1 (stereo not shown) [Cantharidin, Hexahydro-3a,7a-dimethyl-4,7-epoxyisobenzofuran-1,3-dione]
thermotolerance in HS animals given 8-Bromo cGMP plus Cantharidin ([1]; 1 μM Cantharidin with 40 μM 8-Bromo cGMP, HS animals): counteracted the effect of 8-Bromo cGMP in HS animals thereby inducing maximal thermotolerance
thermotolerance of neural function (failure temperature, FIG. 7A) [1]: increased the thermotolerance of neural function

Nc1ncnc2c1ncn2[C@@H]1O[C@@H]2COP(O)(=S)O[C@H]2[C@H]1O (stereo partly shown) [RP-cAMP]
failure temperature compared with controls ([1]; PKA inhibitor, data not shown): no significant differences
recovery time compared with controls ([1]; PKA inhibitor, data not shown): no significant differences

COC(=O)[C@@]1(OC)C[C@H]2O[C@]1(C)n1c3ccccc3c3c4c(c5c6ccccc6n2c5c31)C(=O)N(C)C4 [KT5823]
thermotolerance of neural function (failure temperature, FIG. 7A) [1]: increased the thermotolerance of neural function
acute effect of injection on ventilatory rhythm frequency, burst duration or duty cycle ([1]; 1 μM pressure injection, data not shown): no acute effect
preparations with arrhythmias before failure ([1]; during temperature ramp, controls 60%): 11%
thermal protection of the circuit, pretreated ([2]; 25 nL of 1 μM injected 10 minutes before increasing temperature): thermoprotection and rapid recovery of the circuit was observed
thermal protection of the circuit, acutely treated ([2]; one 25 nL dose injected during temperature ramp 3 min. before failure): extremely rapid and equally pronounced thermal protection of the circuit was observed
time to recovery of ventilatory motor pattern after failure ([2]; pretreated: 25 nL of 1 μM injected into ventilatory neuropil 10 min before temperature ramp, return to room temperature at failure): 62.3 ± 13.4 s

CN1C(=O)CN=C(c2ccccc2)c2cc(Cl)ccc21 [diazepam]
reduction in risk per patient year (febrile seizures): 44%

— US7858579B2, “Thermoprotective compositions of pkg pathway inhibitors and method of use thereof” (priority 2005, dated 2010)
